The test system of data set [1] is S. aureus. Kind of data set: Antimicrobial serial tube dilution, MIC and MBC. The data set is classed as cell-based, Staphylococcus aureus MTCC 2901. As to conditions: Staphylococcus aureus.
Data set [2] relates to tested bacterial strains. The experiment in a line: Antimicrobial serial tube dilution, ranges over several bacterial strains. The class given is cell-based. As to conditions: B. cereus, S. typhi and S. aureus. On the procedure:
(§1) The synthesized diazenyl chalcones (C18 to C27) and controls (dyes A and E, and chalcone) were assessed for their antimicrobial activity by estimation of MIC and MBC/MFC values. […] The stock solutions of the test compounds and standard drugs having a concentration of 1000 µg ml^−1 were prepared by dissolving the used compounds in DMSO. The nutrient broth/Sabouraud dextrose broth was used for the serial dilution of the test compounds and referenced drugs for bacterial and fungal cultures, respectively. […] The size of the final inoculum in each test tube was taken as 5 × 10^5 CFU ml^−1. The incubation of the test and standard compounds of varying concentrations was done for 24 h at 37 ± 2 °C (bacterial culture) and for 48 h at 37 ± 2 °C (C. albicans) and for 7 d at 25 ± 2 °C (A. fumigatus). The diazenyl chalcones (C18–C27), were further evaluated for their bactericidal/fungicidal activity by estimation of MBC/MFC values. […] For proper mixing of culture media, the plates were shaken gently followed by incubation at the predefined temperature and time as stated earlier, followed by the visual inspection of the plates for signs of microbial growth.

Data set [3] in a line: DPPH scavenging antioxidant assay. Background: DPPH is a stable violet radical that fades when it is reduced.
The subject of data set [4] is HEK human embryonic kidney cells. Kind of data set: MTT cytotoxicity assay, HEK. The class given is cell-based. As to conditions: 48 h. On the procedure:
(§2) The cell lines employed in the investigation were purchased from the National Centre for Cell Sciences (NCCS), Pune, India. The cell lines were cultured in DMEM fortified with 10% FBS, L-glutamine, sodium bicarbonate, and solution of antibiotics (streptomycin 100 μg ml^−1 + penicillin-100 U ml^−1). The culture of cell lines was stored under 5% CO2 incubation at 37 °C.
(§3) The compounds showing maximum activity (antimicrobial and antioxidant potential) were screened for cytotoxicity against A549 and HEK cell lines using MTT assay. Initially, 96-well microculture plate was seeded with 1 × 10^4 cells in 100 µl/well DMEM/MEM, supplemented with 10% FBS followed by incubation at a temperature of 37 °C for a period of 24 h under 5% CO2 atmosphere. After that, the test compounds and camptothecin were added to the cells to achieve a concentration of 10, 25, 50 and 100 µg. MTT reagent (10 µl) of concentration of 5 mg ml^−1 added to all the wells after the duration of 48 h. The plate was incubated further for 4 h followed by careful removal of supernatant from each well. To dissolve the formazan crystals, 100 µl of DMSO was added, and the ELISA reader was used to check the absorbance at 570 nm wavelength. In order to calculate the IC50 concentration, the following equation, i.e. A = Bx + C, was used. In this case, A = 50, while the values B and C values were obtained from the survival curve plot. This study was carried out in duplicate.
A general note: Tetrazolium dyes change colour on reduction, which living cells bring about.

The test system of data set [5] is A549 human lung cancer cell line. The experiment in a line: MTT cytotoxicity assay, A549. Conditions: Homo sapiens, A549; MTT, 48 h. The class given is cell-based. As for the experimental part: as §2, §3
In data set [6] the test system is B. subtilis. Kind of data set: Antimicrobial serial tube dilution, MIC and MBC. As to conditions: Bacillus subtilis. The data set is classed as cell-based, Bacillus subtilis MTCC 2063.
In data set [7] the test system is B. cereus. Kind of data set: Antimicrobial serial tube dilution, MIC and MBC. The data set is classed as cell-based, Bacillus cereus MTCC 1305. As to conditions: Bacillus cereus.
Data set [8] has as its system C. albicans. The experiment in a line: Antimicrobial serial tube dilution, MIC and MFC. The data set is classed as cell-based, Candida albicans MTCC 227.
Data set [9] deals with S. typhi. The experiment in a line: Antimicrobial serial tube dilution, MIC and MBC. The class given is cell-based, Salmonella typhi MTCC 3216. As to conditions: Salmonella enterica, TYPHI.
In data set [10] the test system is E. coli. Kind of data set: Antimicrobial serial tube dilution, MIC and MBC. The class given is cell-based, Escherichia coli MTCC 1652.
The subject of data set [11] is A. fumigatus. Kind of data set: Antimicrobial serial tube dilution, MIC and MFC. The data set is classed as cell-based, Aspergillus fumigatus MTCC 2584.
In data set [12] the test system is fungal strains. Kind of data set: Antimicrobial serial tube dilution, ranges over fungal strains. The data set is classed as cell-based. Conditions: read-out: IC50 against fungal strains. As for the experimental part:
as §1

The subject of data set [13] is HEK human embryonic kidney cells. Set-up: method as in PMID 27302903. As to conditions: cited from earlier work.

Structures are written as SMILES. Values after ≈ are worked out from the molar mass of the structure shown. Where two headings read alike, the source gives them in different places.

With `O=C(/C=C\c1ccco1)c1ccc(N=Nc2c(O)cccc2O)cc1` [Compound C-24, (2Z)-1-(4-((2,6-Dihydroxyphenyl)diazenyl)phenyl)-3-(furan-2-yl)prop-2-en-1-one], the melting point was in the range of 315 to 317 °C. The MIC in data set [1] (24 h, read-out: S. aureus MIC) was determined as 15.6 µg/mL (≈ 46.7 µM). Moreover, in data set [1] (read-out: S. aureus MBC), the MBC was 15.6 µg/mL (≈ 46.7 µM). In data set [2], this compound yielded an MBC range of 15.62 to 31.25 µg/mL and an MIC range of 7.81 to 15.62 µg/mL. In addition, in data set [3], the “IC50 DPPH” value was 15.88 µg/mL (≈ 47.5 µM). Also, the “% inhibition of DPPH” value in data set [3] (1.56 µg ml^−1) is on record as 24.16%. Besides, the “% inhibition of DPPH” value in data set [3] (3.12 µg ml^−1) is 26.13%. For the same compound, the “% inhibition of DPPH” value in data set [3] (6.25 µg ml^−1) was found to be 34.65%. Besides, the “% inhibition of DPPH” value in data set [3] (12.5 µg ml^−1) came out at 54.71%. The “% inhibition of DPPH” value in data set [3] (25 µg ml^−1) was determined as 77.38%. Besides, the “% inhibition of DPPH” value in data set [3] (50 µg ml^−1) came out at 96.46%. The “% inhibition of DPPH” value in data set [3] (100 µg ml^−1) was 99.17%. In addition, in data set [3] (Fig. 1), the “log IC50 DPPH” value is listed as 1.201. In addition, in [4], the IC50 came to 280.4 ± 1.21 µg/mL (≈ 839 µM). It took 109 ± 3.21 µg/mL (≈ 326 µM) to reach half-maximal inhibition in data set [5] (IC50). In [6] (24 h, read-out: B. subtilis MIC), the minimal inhibitory concentration (MIC) was determined as 31.2 µg/mL (≈ 93.5 µM). Further, the MBC in [6] (read-out: B. subtilis MBC) worked out at 62.5 µg/mL (≈ 187 µM). Moreover, in data set [7] (24 h, read-out: B. cereus MIC), the MIC came to 15.6 µg/mL (≈ 46.7 µM). Moreover, the minimum bactericidal concentration (MBC) in data set [7] (read-out: B. cereus MBC) amounted to 15.6 µg/mL (≈ 46.7 µM). The minimum inhibitory concentration (MIC) in data set [8] (Candida albicans, 48 h, read-out: C. albicans MIC) turned out to be 62.5 µg/mL (≈ 187 µM). For the same compound, in data set [8] (Candida albicans, read-out: C. albicans MFC), the minimal fungicidal concentration (MFC) was determined as 125 µg/mL (≈ 374 µM). The MIC in data set [9] (24 h, read-out: S. typhi MIC) is 7.58 µg/mL (≈ 22.7 µM). Also, the MBC in data set [9] (read-out: S. typhi MBC) was found to be 15.6 µg/mL (≈ 46.7 µM). In data set [10] (24 h at 37 ± 2 °C), the “E. coli MIC” value was found to be 15.62 µg/mL. In addition, in data set [10] (Escherichia coli, 24 h, read-out: E. coli MIC, 24 h at 37 ± 2 °C), the minimum inhibitory concentration (MIC) lay in the range of 7.81 to 15.6 µg/mL (≈ 23.4 to 46.7 µM). Also, in data set [10] (Escherichia coli, read-out: E. coli MBC), the minimum bactericidal concentration (MBC) was 31.2 µg/mL (≈ 93.5 µM). Further, the minimum inhibitory concentration (MIC) in data set [11] (Aspergillus fumigatus, 168 h, read-out: A. fumigatus MIC) was 125 µg/mL (≈ 374 µM). For the same compound, the MFC in data set [11] (Aspergillus fumigatus, read-out: A. fumigatus MFC) worked out at 125 µg/mL (≈ 374 µM).

Take `OC(Cn1cncn1)(Cn1cncn1)c1ccc(F)cc1F` [Fluconazole, fluconazole, reference compound]: the MIC in data set [8] (Candida albicans; 48 h at 37 ± 2 °C; read-out: C. albicans MIC) was 7.81 µg/mL (≈ 25.5 µM); in data set [11] (Aspergillus fumigatus, 168 h; 7 d at 25 ± 2 °C; read-out: A. fumigatus MIC), 15.6 µg/mL (≈ 51 µM). Moreover, the minimum fungicidal concentration (MFC) amounted to 31.2 µg/mL (≈ 102 µM) in data set [8] (Candida albicans; read-out: C. albicans MFC) and 125 µg/mL (≈ 408 µM) in data set [11] (Aspergillus fumigatus; read-out: A. fumigatus MFC). Besides, in data set [12], the IC50 was in the range of 7.81 to 15.6 µg/mL (≈ 25.5 to 51 µM).

As to `CC[C@@]1(O)C(=O)OCc2c1cc1n(c2=O)Cc2cc3ccccc3nc2-1` [Std, camptothecin, reference compound], the “HEK IC50” value in data set [13] was 9.0 [28] µg ml^−1. The concentration for half-maximal inhibition (IC50) in data set [5] worked out at 8.7 µg/mL (≈ 25 µM).

A word on the melting point: it is the temperature, or range, at which the solid turns liquid. A word on the MIC: it is the smallest concentration in the dilution series that meets the test's criterion for growth inhibition. The MBC is the smallest concentration meeting the test's criterion for killing. As usually defined, the IC50 is the concentration at which inhibition is half-maximal. As a reminder, the MFC is the smallest concentration meeting the test's criterion for killing the fungus.
